Measured values from paper PMC6952396, “Structural basis for itraconazole-mediated NPC1 inhibition” (Nature Communications, 2020).

Columns and labels:
NPC1 [1] = biological target: T1, NPC1 (Cricetulus griseus, UniProt Q9JLG3); assay: Cholesterol re-esterification (ACAT) assay measuring NPC1-mediated export of cholesterol from lysosomes in CHO-7 cells; format: cell-based; details: for cholesteryl [14C] oleate formed, Repeat 1 / cholesteryl [14C] oleate formed, Repeat 2: Fig. 2 source data; for cholesteryl [14C] oleate formed, Repeat 3 / cholesteryl [14C] oleate formed, Repeat 4: Supplementary Fig. 3 source data
T1 construct: CHO-7 cells in the medium are deprived of cholesterol to induce the LDL receptors biosynthesis; endogenous in cells; host or cells: CHO-7 cells
T1 sequence (Q9JLG3 23-1277): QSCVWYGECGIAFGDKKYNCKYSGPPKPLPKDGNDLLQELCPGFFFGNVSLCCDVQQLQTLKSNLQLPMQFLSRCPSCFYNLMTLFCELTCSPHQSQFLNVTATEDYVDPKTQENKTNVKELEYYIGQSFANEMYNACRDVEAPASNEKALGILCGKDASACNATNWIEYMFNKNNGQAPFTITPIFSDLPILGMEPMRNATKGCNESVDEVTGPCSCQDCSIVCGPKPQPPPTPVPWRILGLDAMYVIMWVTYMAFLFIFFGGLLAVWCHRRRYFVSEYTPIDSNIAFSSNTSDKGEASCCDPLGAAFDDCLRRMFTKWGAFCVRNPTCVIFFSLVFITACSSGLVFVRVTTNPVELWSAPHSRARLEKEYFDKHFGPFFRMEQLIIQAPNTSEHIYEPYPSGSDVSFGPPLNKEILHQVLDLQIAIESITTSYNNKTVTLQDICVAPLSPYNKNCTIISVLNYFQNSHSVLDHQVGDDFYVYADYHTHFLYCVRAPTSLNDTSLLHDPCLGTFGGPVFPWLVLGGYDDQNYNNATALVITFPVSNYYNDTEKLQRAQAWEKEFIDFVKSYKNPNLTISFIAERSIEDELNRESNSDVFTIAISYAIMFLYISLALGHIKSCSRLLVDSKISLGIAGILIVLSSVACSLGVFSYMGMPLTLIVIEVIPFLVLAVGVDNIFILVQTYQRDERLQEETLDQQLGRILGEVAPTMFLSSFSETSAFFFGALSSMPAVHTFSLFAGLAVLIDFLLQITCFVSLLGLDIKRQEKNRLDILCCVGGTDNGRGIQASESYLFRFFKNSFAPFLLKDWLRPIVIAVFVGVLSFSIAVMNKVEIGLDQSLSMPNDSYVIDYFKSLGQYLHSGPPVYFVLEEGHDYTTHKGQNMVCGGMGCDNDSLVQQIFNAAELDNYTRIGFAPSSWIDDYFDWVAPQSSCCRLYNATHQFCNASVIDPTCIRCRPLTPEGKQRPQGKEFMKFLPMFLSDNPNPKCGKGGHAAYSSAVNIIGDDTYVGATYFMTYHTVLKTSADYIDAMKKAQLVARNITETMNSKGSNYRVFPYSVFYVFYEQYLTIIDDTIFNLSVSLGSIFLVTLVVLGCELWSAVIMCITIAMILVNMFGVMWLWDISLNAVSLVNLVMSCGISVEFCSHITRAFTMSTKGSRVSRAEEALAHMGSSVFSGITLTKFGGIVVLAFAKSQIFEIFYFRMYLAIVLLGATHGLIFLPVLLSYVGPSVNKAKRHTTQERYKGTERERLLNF
Description: Itraconazole has three chiral centers (Supplementary Fig. 2a). The pharmaceutical form contains four cis-stereoisomers in a 1:1:1:1 molar ratio (Supplementary Fig. 2a–d). To determine the activity of the cis-stereoisomers, the individual isomers were isolated and identified based on their optical rotation in chloroform following a previous report (Supplementary Fig. 2e)[26]. Then, they were separately tested in a cholesterol re-esterification assay used to measure NPC1-mediated export of cholesterol from lysosomes. Briefly, CHO-7 cells in the medium are deprived of cholesterol to induce the LDL receptors biosynthesis. The cells are then incubated with fetal calf serum (FCS) that contains LDL. The LDL-derived cholesterol will now be transported by functional NPC1 protein from the lysosome to the endoplasmic reticulum (ER). The acyl-CoA:cholesterol actyltransferase named ACAT can now re-esterify the cholesterol in the ER. Therefore, the cells were pulse-labeled with [^14C] oleate and we can measure the synthesis of cholesteroyl [^14C] oleate to evaluate the activity of NPC1 protein. Using this assay, we tested the ability of various itraconazole to inhibit NPC1 activity.
Fig. 2 ACAT activity of itraconazole and ketoconazole in CHO-7 cells. On day 0, CHO-7 cells were set up in medium A with 5% LPDS at 2.5 × 10^5 cells/well in 6-well dish. On day 2, cells were switched to medium A with 5% LPDS containing 50 µM sodium compactin and 50 µM sodium mevalonate. On day 3 the cells received fresh medium B containing compactin and mevalonate with various concentration compounds in the presence of 10% FCS containing lipoproteins. After incubation for 4 h at 37 °C, each cell monolayer was pulse-labeled for 2 h with 0.1 mM sodium [^14C] oleate (5792 dpm/nmol). The cells were then harvested for measurement of their content of cholesteryl [^14C] oleate and [^14C] triglycerides, as described in Methods. […] Itraconazole mixture, isomer A (Supplementary Fig. 2a), isomer B (Supplementary Fig. 2b) and isomer C (Supplementary Fig. 2c) were added at final concentrations of 0.3 μM. The isomer D (Supplementary Fig. 2d), I-Br and ketoconazole were added at final concentrations of 1 μM. The biological repeats are shown as individual values. Source data are provided as a Source Data file.
On day 0, cells were set up in medium A with 5% LPDS at 2.5 × 10^5 cells/well in six-well dish. On day 2, cells were switched to medium A with 5% LPDS containing 50 µM sodium compactin and 50 µM sodium mevalonate. On day 3 the cells received fresh medium B containing compactin and mevalonate with indicated concentration triazole compounds in the presence of 10% FCS containing lipoproteins. After incubation for 4 h at 37 °C, each cell monolayer was pulse-labeled for 2 h with 0.1 mM sodium [^14C] oleate (5792 dpm/nmol). The cells were then harvested for measurement of their content of cholesteryl [^14C] oleate and [^14C] triglycerides.
The rate of incorporation of [^14C] oleate into cholesteryl [^14C] oleate and [^14C] triglycerides by monolayers of NPC1^−/− cells and CHO-7 cells was measured as described previously. In brief, cells were switched to medium containing LPDS supplemented with compactin and mevolonate at 16 h before the experiments. On the day of the experiment, cells were incubated for 4 h with fresh medium containing FCS as a source of cholesterol-containing lipoproteins. Cells were then pulse –labeled for 2 h with 0.1 mM sodium [^14C] oleate. Cells were then washed, and the lipids were extracted in hexane:isopropanol (3:2, vol:vol), separated on a silica gel G thin-layer chromatogram (developed in heptane:ethylether:acetic acid, 90:30:1), and quantified by scintillation counting with the use of an internal standard for recovery.

NPC1 [2] = biological target: T1, NPC1; details: cultured cells; cited from earlier work
[3] = tested on: NPC1-mediated cholesterol export; details: cited from earlier work

## CCC(C)n1ncn(-c2ccc(N3CCN(c4ccc(OCC5COC(Cn6cncn6)(c6ccc(Cl)cc6Cl)O5)cc4)CC3)cc2)c1=O (stereo not drawn) [Itra-D]
NPC1 [1]; 0.01 uM compound
  cholesteryl [14C] oleate formed, Repeat 1: 5.124 nanomoles formed per hour per milligram cell protein
  cholesteryl [14C] oleate formed, Repeat 2: 4.829 nanomoles formed per hour per milligram cell protein
  cholesteryl [14C] oleate formed, Repeat 3: 5.364 nanomoles formed per hour per milligram cell protein
  cholesteryl [14C] oleate formed, Repeat 4: 5.55 nanomoles formed per hour per milligram cell protein
NPC1 [1]; 0.03 uM compound
  cholesteryl [14C] oleate formed, Repeat 1: 5.201 nanomoles formed per hour per milligram cell protein
  cholesteryl [14C] oleate formed, Repeat 2: 5.414 nanomoles formed per hour per milligram cell protein
  cholesteryl [14C] oleate formed, Repeat 3: 4.815 nanomoles formed per hour per milligram cell protein
  cholesteryl [14C] oleate formed, Repeat 4: 5.633 nanomoles formed per hour per milligram cell protein
NPC1 [1]; 0.06 uM compound
  cholesteryl [14C] oleate formed, Repeat 1: 4.957 nanomoles formed per hour per milligram cell protein
  cholesteryl [14C] oleate formed, Repeat 2: 4.372 nanomoles formed per hour per milligram cell protein
  cholesteryl [14C] oleate formed, Repeat 3: 4.6935 nanomoles formed per hour per milligram cell protein
  cholesteryl [14C] oleate formed, Repeat 4: 4.899 nanomoles formed per hour per milligram cell protein
NPC1 [1]; 0.1 uM compound
  cholesteryl [14C] oleate formed, Repeat 1: 4.223 nanomoles formed per hour per milligram cell protein
  cholesteryl [14C] oleate formed, Repeat 2: 3.931 nanomoles formed per hour per milligram cell protein
  cholesteryl [14C] oleate formed, Repeat 3: 3.618 nanomoles formed per hour per milligram cell protein
  cholesteryl [14C] oleate formed, Repeat 4: 3.755 nanomoles formed per hour per milligram cell protein
NPC1 [1]; 0.3 uM compound
  cholesteryl [14C] oleate formed, Repeat 1: 1.696 nanomoles formed per hour per milligram cell protein
  cholesteryl [14C] oleate formed, Repeat 2: 0.8471 nanomoles formed per hour per milligram cell protein
  cholesteryl [14C] oleate formed, Repeat 3: 0.9245 nanomoles formed per hour per milligram cell protein
  cholesteryl [14C] oleate formed, Repeat 4: 0.77 nanomoles formed per hour per milligram cell protein
NPC1 [1]; 1 uM compound
  cholesteryl [14C] oleate formed, Repeat 1: 0.3184 nanomoles formed per hour per milligram cell protein
  cholesteryl [14C] oleate formed, Repeat 2: 0.2982 nanomoles formed per hour per milligram cell protein
  cholesteryl [14C] oleate formed, Repeat 3: 0.3042 nanomoles formed per hour per milligram cell protein
  cholesteryl [14C] oleate formed, Repeat 4: 0.4741 nanomoles formed per hour per milligram cell protein
NPC1 [1]; read-out: IC50 (concentration at which each compound inhibited cholesterol esterification by 50%), 10% FCS, 4 h then 2 h [14C] oleate pulse
  IC50: 175 nM

## CCN(CC)CCO[C@H]1CC[C@@]2(C)C(=CC[C@@H]3[C@@H]2CC[C@]2(C)C(=O)CC[C@@H]32)C1 [U18666A]
NPC1 [2]
  inhibition of P-X cross-linking to NPC1: inhibited
[3]
  inhibition of cholesterol export from lysosomes: inhibit cholesterol export from lysosomes
